Test system: 292921-168-R-J2-PDC complex spheroid viability
Assay: Anticancer human tumor 292921-168-R-J2-PDC patient-derived pancreatic carcinoma cell line growth inhibition
Conditions: for IC50: curve of first compound; for viability, T/C: stronger effect = lower value
Summary of the method: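 Drug combinations with the LSD1 inhibitor iadademstat tested on tumor cells co-cultured as spheroids with endothelial cells and mesenchymal stem cells. Concentrations descended in half-log increments from clinical Cmax or 10 microM.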

[1] = second compound 0.1 µM, first compound 0.000316 µM
[2] = second compound 0.1 µM, first compound 0.001 µM
[3] = second compound 0.1 µM, first compound 0.00316 µM
[4] = second compound 0.1 µM, first compound 0.01 µM
[5] = second compound 0.1 µM, first compound 0.0316 µM
[6] = second compound 0.1 µM, first compound 0.1 µM
[7] = second compound 0.316 µM, first compound 0.000316 µM
[8] = second compound 0.316 µM, first compound 0.001 µM
[9] = second compound 0.316 µM, first compound 0.00316 µM
[10] = second compound 0.316 µM, first compound 0.01 µM
[11] = second compound 0.316 µM, first compound 0.0316 µM
[12] = second compound 0.316 µM, first compound 0.1 µM
[13] = second compound 1 µM, first compound 0.000316 µM
[14] = second compound 1 µM, first compound 0.001 µM
[15] = second compound 1 µM, first compound 0.00316 µM
[16] = second compound 1 µM, first compound 0.01 µM
[17] = second compound 1 µM, first compound 0.0316 µM
[18] = second compound 1 µM, first compound 0.1 µM
[19] = second compound 3.16 µM, first compound 0.000316 µM
[20] = second compound 3.16 µM, first compound 0.001 µM
[21] = second compound 3.16 µM, first compound 0.00316 µM
[22] = second compound 3.16 µM, first compound 0.01 µM
[23] = second compound 3.16 µM, first compound 0.0316 µM
[24] = second compound 3.16 µM, first compound 0.1 µM
[25] = second compound 10 µM, first compound 0.000316 µM
[26] = second compound 10 µM, first compound 0.001 µM
[27] = second compound 10 µM, first compound 0.00316 µM
[28] = second compound 10 µM, first compound 0.01 µM
[29] = second compound 10 µM, first compound 0.0316 µM
[30] = second compound 10 µM, first compound 0.1 µM
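Also: seven day compound exposure before luminescent viability read.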
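For viability, T/C in this document: 100% = DMSO vehicle control wells.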

| Structure (SMILES) | IC50 (second compound 0.1 µM) [nM] | IC50 (second compound 0.316 µM) [nM] | IC50 (second compound 1 µM) [nM] | IC50 (second compound 3.16 µM) [nM] | IC50 (second compound 10 µM) [nM] | viability, T/C [3] [%] | viability, T/C [4] [%] | viability, T/C [5] [%] | viability, T/C [6] [%] | viability, T/C [9] [%] | viability, T/C [10] [%] | viability, T/C [11] [%] | viability, T/C [12] [%] | viability, T/C [15] [%] | viability, T/C [16] [%] | viability, T/C [17] [%] | viability, T/C [18] [%] | viability, T/C [21] [%] | viability, T/C [22] [%] | viability, T/C [23] [%] | other results |
| --- | --- | --- | --- | --- | --- | --- | --- | --- | --- | --- | --- | --- | --- | --- | --- | --- | --- | --- | --- | --- | --- |
| CC(C)CC(NC(=O)C(Cc1ccccc1)NC(=O)c1cnccn1)B(O)O (stereo not given) + NC1CCC(NC2CC2c2ccccc2)CC1 | < 0.316 | < 0.316 | < 0.316 | < 0.316 | < 0.316 | 0.17 | 0.16 | 0.11 | 0.14 | 0.21 | 3.23 | 0.17 | 0.19 | 0.24 | 0.12 | 0.26 | 0.25 | 0.17 | 0.1 | 0.08 | viability, T/C [1]: 16.3%; viability, T/C [2]: 0.63%; viability, T/C [7]: 15.9%; viability, T/C [8]: 0.67%; viability, T/C [13]: 16.1%; viability, T/C [14]: 0.64%; viability, T/C [19]: 13.8%; viability, T/C [20]: 0.62%; viability, T/C [24]: 0.16%; viability, T/C [25]: 12.2%; viability, T/C [26]: 0.55%; viability, T/C [27]: 0.22%; viability, T/C [28]: 0.19%; viability, T/C [29]: 0.14%; viability, T/C [30]: 0.47% |
| CC(C)CC(NC(=O)CNC(=O)c1cc(Cl)ccc1Cl)B1OC(=O)CC(CC(=O)O)(C(=O)O)O1 (stereo not given) + NC1CCC(NC2CC2c2ccccc2)CC1 | 4.8 | 4.28 | 4.66 | 4.25 | 4.24 | 70.9 | 13.4 | 2.33 | 0.79 | 61.9 | 16.1 | 2.1 | 0.69 | 66.7 | 17.2 | 2.39 | 0.76 | 63.5 | 15.9 | 1.7 | viability, T/C [1]: 75.8%; viability, T/C [2]: 69.4%; viability, T/C [7]: 60.9%; viability, T/C [8]: 70.9%; viability, T/C [13]: 63.8%; viability, T/C [14]: 73%; viability, T/C [19]: 54.9%; viability, T/C [20]: 67%; viability, T/C [24]: 0.63%; viability, T/C [25]: 58.6%; viability, T/C [26]: 69%; viability, T/C [27]: 63.1%; viability, T/C [28]: 11.7%; viability, T/C [29]: 1.43%; viability, T/C [30]: 0.5% |
| COc1cc(Nc2ncc3c(n2)-c2ccc(Cl)cc2C(c2c(F)cccc2OC)=NC3)ccc1C(=O)O + NC1CCC(NC2CC2c2ccccc2)CC1 | < 3.16 | < 3.16 | < 3.16 | < 3.16 | < 3.16 | 32.5 | 37.7 | 33.5 | 28.6 | 31.7 | 39.2 | 32.5 | 24.6 | 35.6 | 34.7 | 34.8 | 29.3 | 30.2 | 32.6 | 29.4 | viability, T/C (second compound 0.1 µM, first compound 0.316 µM): 22.4%; viability, T/C (second compound 0.1 µM, first compound 1 µM): 16.5%; viability, T/C (second compound 0.316 µM, first compound 0.316 µM): 22.5%; viability, T/C (second compound 0.316 µM, first compound 1 µM): 14.3%; viability, T/C (second compound 1 µM, first compound 0.316 µM): 18.3%; viability, T/C (second compound 1 µM, first compound 1 µM): 14.3%; viability, T/C [24]: 25.9%; viability, T/C (second compound 3.16 µM, first compound 0.316 µM): 21.5%; viability, T/C (second compound 3.16 µM, first compound 1 µM): 14.9%; viability, T/C [27]: 28.3%; viability, T/C [28]: 36.8%; viability, T/C [29]: 30.9%; viability, T/C [30]: 25.2%; viability, T/C (second compound 10 µM, first compound 0.316 µM): 19.9%; viability, T/C (second compound 10 µM, first compound 1 µM): 15.3% |

— PubChem BioAssay AID1918934 (Molecular Pharmacology Branch, DTP, NCI, 2023)
